Reference: the supplement of paper PMC10307832

How the values were obtained:
Assay in all cases: relative viability (nuclei count vs DMSO), 5 days (fraction); higher = more cells survive
[1] = tested on: NCI-H1793
In short: (§1)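 Lung cancer cell lines were seeded in 1536-well plates and dosed by pin tool the next day, with either a single drug or a fixed anchor-drug dose combined with five library-drug doses (not always all listed) spaced in √10 steps. Five days later, one step fixed the cells and stained their nuclei (final 0.05% Triton X-100, 1% formaldehyde, 1 ug/ml Hoechst), and nuclei were counted on 4× images. Relative viability is the nuclei count in treated wells divided by the count in vehicle wells, and each value is the median of duplicate plates.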

[2] = tested on: NCI-H2170
In short: as §1

[3] = tested on: HCC-78
In short: as §1

[4] = tested on: SW 900
In short: as §1

[5] = tested on: NCI-H2085
In short: as §1

[6] = tested on: COR-L 105
In short: as §1

[7] = tested on: NCI-H1944
In short: as §1

[8] = tested on: NCI-H1666
In short: as §1

[9] = tested on: EPLC-272H
In short: as §1

[10] = tested on: NCI-H358
In short: as §1

[11] = tested on: NCI-H1915
In short: as §1

What does the source list for `COc1cc2nccc(Oc3ccc(NC(=O)Nc4cc(C)on4)c(Cl)c3)c2cc1OC` [Tivozanib] + O=C(CCCCCCC(=O)Nc1ccccc1)NO [Vorinostat] (partner 1 µM)?
relative viability ([1]; first compound 0.005 µM): 0.606; relative viability ([1]; first compound 0.01581 µM): 0.706; relative viability ([1]; first compound 0.05 µM): 0.778; relative viability ([1]; first compound 0.5 µM): 0.742; relative viability ([2]; first compound 0.005 µM): 0.74; relative viability ([2]; first compound 0.01581 µM): 0.782; relative viability ([2]; first compound 0.05 µM): 0.856; relative viability ([2]; first compound 0.5 µM): 0.816; relative viability ([3]; first compound 0.005 µM): 0.408; relative viability ([3]; first compound 0.01581 µM): 0.47; relative viability ([3]; first compound 0.05 µM): 0.412; relative viability ([3]; first compound 0.1581 µM): 0.467; relative viability ([3]; first compound 0.5 µM): 0.363; relative viability ([4]; first compound 0.005 µM): 0.459; relative viability ([4]; first compound 0.01581 µM): 0.481; relative viability ([4]; first compound 0.05 µM): 0.627; relative viability ([4]; first compound 0.5 µM): 0.464; relative viability ([5]; first compound 0.005 µM): 0.754; relative viability ([5]; first compound 0.01581 µM): 0.796; relative viability ([5]; first compound 0.05 µM): 0.825; relative viability ([5]; first compound 0.1581 µM): 0.709; relative viability ([5]; first compound 0.5 µM): 0.786; relative viability ([6]; first compound 0.005 µM): 0.696; relative viability ([6]; first compound 0.01581 µM): 0.743; relative viability ([6]; first compound 0.05 µM): 0.801; relative viability ([6]; first compound 0.1581 µM): 0.821; relative viability ([6]; first compound 0.5 µM): 0.794; relative viability ([7]; first compound 0.005 µM): 0.443; relative viability ([7]; first compound 0.01581 µM): 0.59; relative viability ([7]; first compound 0.05 µM): 0.534; relative viability ([7]; first compound 0.1581 µM): 0.5; relative viability ([7]; first compound 0.5 µM): 0.609; relative viability ([8]; first compound 0.005 µM): 1.07; relative viability ([8]; first compound 0.01581 µM): 1.01; relative viability ([8]; first compound 0.05 µM): 1.11; relative viability ([8]; first compound 0.1581 µM): 1.09; relative viability ([8]; first compound 0.5 µM): 0.978; relative viability ([9]; first compound 0.005 µM): 0.452; relative viability ([9]; first compound 0.01581 µM): 0.617; relative viability ([9]; first compound 0.05 µM): 0.385; relative viability ([9]; first compound 0.1581 µM): 0.435; relative viability ([9]; first compound 0.5 µM): 0.281; relative viability ([10]; first compound 0.005 µM): 0.652; relative viability ([10]; first compound 0.01581 µM): 0.761; relative viability ([10]; first compound 0.05 µM): 0.779; relative viability ([10]; first compound 0.1581 µM): 0.62; relative viability ([10]; first compound 0.5 µM): 0.37; relative viability ([11]; first compound 0.005 µM): 0.488; relative viability ([11]; first compound 0.01581 µM): 0.503; relative viability ([11]; first compound 0.05 µM): 0.567; relative viability ([11]; first compound 0.1581 µM): 0.391
